Test results from PMC4503722, “Novel Phenotypic Outcomes Identified for a Public Collection of Approved Drugs from a Publicly Accessible Panel of Assays” (PLoS ONE, 2015).
Read-outs that look alike come from different tables or passages of the source.

What was measured:
[1] = tested on: ECFC/ADSC co-culture cell nuclei number; conditions: for IC50: read-out: VEGF_ADSC\ECFC Angio Hoechst NucArea summarized IC50
[2] = molecular target: T1, hJAK2 (Homo sapiens, UniProt O60674); assay: Cerep LANCE kinase assay hJAK2 (S1 assay 33); type: biochemical; conditions: for IC50: read-out: hJAK2 LANCE summarized IC50
T1 construct: purchased Cerep (LANCE kinase assay platform, contract assay)

[3] = tested on: HCT116 cells treated with a GSK3β inhibitor; assay: cells; type: cell-based; conditions: for IC50: read-out: GSK3b inh pretreated_Viability ATP HCT116 summarized IC50
[4] = molecular target: T2, hFLT3 (Homo sapiens, UniProt P36888); assay: Cerep LANCE kinase assay hFLT3 (S1 assay 35); type: biochemical; conditions: for IC50: read-out: hFLT3 LANCE summarized IC50
T2 construct: purchased Cerep (LANCE kinase assay platform, contract assay)

[5] = molecular target: T3, hKDR (Homo sapiens, UniProt P35968); assay: Cerep LANCE kinase assay hKDR (S1 assay 32); type: biochemical; conditions: for IC50: read-out: hKDR LANCE summarized IC50
T3 construct: purchased Cerep (LANCE kinase assay platform, contract assay)

[6] = tested on: RKO; assay: cells; type: cell-based; conditions: for IC50: read-out: Basal_Viability ATP RKO summarized IC50
[7] = tested on: DLD-1; assay: cells; type: cell-based; conditions: for IC50: read-out: Basal_Viability ATP DLD-1 summarized IC50
[8] = tested on: SW480; assay: cells; type: cell-based; conditions: for IC50: read-out: Basal_Viability ATP SW480 summarized IC50
[9] = tested on: HCT116; assay: cells; type: cell-based; conditions: for IC50: read-out: Basal_Viability ATP HCT116 summarized IC50
[10] = tested on: HT-29; assay: cells; type: cell-based; conditions: for IC50: read-out: Basal_Viability ATP HT-29 summarized IC50
[11] = tested on: SNU-C1; assay: cells; type: cell-based; conditions: for IC50: read-out: Basal_Viability ATP SNU-C1 summarized IC50
[12] = tested on: Colo320; assay: cells; type: cell-based; conditions: for IC50: read-out: Basal_Viability ATP Colo 320 summarized IC50
[13] = tested on: HeLa cells; assay: cells; type: cell-based;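 on Hela CellCycMod PI 4N summarized IC50: value tracks stimulation of 4N DNA content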
[14] = tested on: endothelial tube formation in co-cultures of ECFCs and ADSCs treated with VEGF; assay: cells; type: cell-based, human; conditions: for IC50: read-out: VEGF_ADSC\ECFC Angio CD31 TubeArea summarized IC50
[15] = molecular target: T4, hGSK3b (Homo sapiens, UniProt P49841); assay: Cerep LANCE kinase assay hGSK3b (S1 assay 34); type: biochemical; conditions: for IC50: read-out: hGSK3b LANCE summarized IC50
T4 construct: purchased Cerep (LANCE kinase assay platform, contract assay)

[16] = molecular target: T5, hp70S6K1 (RPS6KB1) (Homo sapiens, UniProt P23443); assay: Cerep LANCE kinase assay hp70S6K1 (S1 assay 31); type: biochemical; conditions: for IC50: read-out: hp70S6K1 LANCE summarized IC50
T5 construct: purchased Cerep (LANCE kinase assay platform, contract assay)

[17] = assay number 26, GSK3b inhibitor pretreated

T5 sequence (P23443 whole entry): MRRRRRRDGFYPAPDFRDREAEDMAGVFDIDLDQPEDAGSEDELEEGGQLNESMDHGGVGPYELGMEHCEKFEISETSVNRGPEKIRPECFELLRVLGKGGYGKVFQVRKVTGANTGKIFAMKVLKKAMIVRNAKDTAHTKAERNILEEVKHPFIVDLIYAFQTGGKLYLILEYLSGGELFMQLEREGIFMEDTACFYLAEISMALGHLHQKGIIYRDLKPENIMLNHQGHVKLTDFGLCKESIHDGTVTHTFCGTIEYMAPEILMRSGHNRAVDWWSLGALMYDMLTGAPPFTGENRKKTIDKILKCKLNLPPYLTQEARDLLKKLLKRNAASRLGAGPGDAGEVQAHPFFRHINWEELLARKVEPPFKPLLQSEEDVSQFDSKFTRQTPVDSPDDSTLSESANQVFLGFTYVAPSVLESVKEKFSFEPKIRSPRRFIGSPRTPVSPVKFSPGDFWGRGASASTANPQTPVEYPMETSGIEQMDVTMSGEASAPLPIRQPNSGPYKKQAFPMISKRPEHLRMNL
T2 sequence (P36888 27-993): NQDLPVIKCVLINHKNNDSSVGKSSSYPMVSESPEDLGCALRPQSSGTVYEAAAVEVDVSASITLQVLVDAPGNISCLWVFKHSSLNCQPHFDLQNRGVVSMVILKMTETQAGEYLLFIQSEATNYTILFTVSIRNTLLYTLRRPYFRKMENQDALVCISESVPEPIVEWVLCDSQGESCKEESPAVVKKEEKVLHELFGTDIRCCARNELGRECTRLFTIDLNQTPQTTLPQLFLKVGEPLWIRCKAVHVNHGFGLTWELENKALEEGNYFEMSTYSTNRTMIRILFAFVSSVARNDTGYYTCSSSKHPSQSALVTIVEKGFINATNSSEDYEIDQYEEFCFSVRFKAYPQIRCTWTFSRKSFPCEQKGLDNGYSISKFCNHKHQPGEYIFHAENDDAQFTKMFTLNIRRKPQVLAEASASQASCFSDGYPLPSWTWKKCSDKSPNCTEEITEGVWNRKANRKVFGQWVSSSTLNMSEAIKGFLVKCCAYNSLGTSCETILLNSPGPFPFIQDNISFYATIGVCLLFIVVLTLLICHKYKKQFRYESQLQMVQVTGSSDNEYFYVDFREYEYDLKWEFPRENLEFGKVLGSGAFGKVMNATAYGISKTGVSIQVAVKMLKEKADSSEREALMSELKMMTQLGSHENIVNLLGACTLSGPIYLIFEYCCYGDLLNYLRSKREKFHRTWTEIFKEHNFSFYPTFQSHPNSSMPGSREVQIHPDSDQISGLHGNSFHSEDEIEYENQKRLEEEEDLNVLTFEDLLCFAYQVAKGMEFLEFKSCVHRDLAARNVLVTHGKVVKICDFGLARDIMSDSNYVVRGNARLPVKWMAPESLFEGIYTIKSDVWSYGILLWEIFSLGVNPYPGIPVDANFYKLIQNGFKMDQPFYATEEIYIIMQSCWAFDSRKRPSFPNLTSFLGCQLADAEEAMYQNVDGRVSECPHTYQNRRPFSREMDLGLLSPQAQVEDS
T1 sequence (O60674 whole entry): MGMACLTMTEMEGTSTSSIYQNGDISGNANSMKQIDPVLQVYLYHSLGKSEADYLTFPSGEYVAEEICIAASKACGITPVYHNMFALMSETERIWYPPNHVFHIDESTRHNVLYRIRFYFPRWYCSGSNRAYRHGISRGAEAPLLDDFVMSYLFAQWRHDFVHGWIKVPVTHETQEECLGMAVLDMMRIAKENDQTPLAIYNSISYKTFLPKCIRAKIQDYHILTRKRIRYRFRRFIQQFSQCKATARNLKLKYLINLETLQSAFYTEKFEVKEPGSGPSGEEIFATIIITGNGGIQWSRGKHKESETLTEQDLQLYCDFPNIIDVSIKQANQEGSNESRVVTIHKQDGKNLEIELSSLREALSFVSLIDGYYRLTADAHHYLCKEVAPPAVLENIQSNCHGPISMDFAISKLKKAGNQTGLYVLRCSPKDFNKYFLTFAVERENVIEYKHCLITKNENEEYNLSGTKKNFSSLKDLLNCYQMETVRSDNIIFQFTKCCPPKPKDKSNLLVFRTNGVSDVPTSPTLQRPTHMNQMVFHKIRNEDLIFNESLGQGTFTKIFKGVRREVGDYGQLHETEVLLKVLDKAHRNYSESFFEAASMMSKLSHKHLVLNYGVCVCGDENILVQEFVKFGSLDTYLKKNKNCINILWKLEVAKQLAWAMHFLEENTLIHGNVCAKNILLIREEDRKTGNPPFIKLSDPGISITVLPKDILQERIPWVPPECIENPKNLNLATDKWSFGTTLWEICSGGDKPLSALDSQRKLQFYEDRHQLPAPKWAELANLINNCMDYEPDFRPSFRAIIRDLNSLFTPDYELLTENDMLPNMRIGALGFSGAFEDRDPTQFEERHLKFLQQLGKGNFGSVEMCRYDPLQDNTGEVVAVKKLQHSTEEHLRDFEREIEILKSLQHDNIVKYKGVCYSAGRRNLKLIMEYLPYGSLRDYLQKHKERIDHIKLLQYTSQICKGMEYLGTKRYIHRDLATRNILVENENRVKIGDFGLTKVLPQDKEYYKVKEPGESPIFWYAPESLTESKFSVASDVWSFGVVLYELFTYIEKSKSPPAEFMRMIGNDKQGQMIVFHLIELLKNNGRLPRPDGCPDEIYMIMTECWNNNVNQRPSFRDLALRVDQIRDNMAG
T4 sequence (P49841 whole entry): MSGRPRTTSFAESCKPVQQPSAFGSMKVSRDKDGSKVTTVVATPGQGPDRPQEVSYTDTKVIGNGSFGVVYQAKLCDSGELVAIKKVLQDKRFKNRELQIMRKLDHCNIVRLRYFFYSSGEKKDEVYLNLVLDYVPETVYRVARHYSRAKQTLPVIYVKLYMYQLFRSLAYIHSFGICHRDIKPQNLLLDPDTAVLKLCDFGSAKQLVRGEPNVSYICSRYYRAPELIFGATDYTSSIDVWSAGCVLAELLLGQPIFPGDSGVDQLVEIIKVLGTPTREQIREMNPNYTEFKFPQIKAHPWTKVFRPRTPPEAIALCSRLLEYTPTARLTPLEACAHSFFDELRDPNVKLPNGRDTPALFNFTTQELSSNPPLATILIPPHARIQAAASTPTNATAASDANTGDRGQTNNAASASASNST
T3 sequence (P35968 20-1356): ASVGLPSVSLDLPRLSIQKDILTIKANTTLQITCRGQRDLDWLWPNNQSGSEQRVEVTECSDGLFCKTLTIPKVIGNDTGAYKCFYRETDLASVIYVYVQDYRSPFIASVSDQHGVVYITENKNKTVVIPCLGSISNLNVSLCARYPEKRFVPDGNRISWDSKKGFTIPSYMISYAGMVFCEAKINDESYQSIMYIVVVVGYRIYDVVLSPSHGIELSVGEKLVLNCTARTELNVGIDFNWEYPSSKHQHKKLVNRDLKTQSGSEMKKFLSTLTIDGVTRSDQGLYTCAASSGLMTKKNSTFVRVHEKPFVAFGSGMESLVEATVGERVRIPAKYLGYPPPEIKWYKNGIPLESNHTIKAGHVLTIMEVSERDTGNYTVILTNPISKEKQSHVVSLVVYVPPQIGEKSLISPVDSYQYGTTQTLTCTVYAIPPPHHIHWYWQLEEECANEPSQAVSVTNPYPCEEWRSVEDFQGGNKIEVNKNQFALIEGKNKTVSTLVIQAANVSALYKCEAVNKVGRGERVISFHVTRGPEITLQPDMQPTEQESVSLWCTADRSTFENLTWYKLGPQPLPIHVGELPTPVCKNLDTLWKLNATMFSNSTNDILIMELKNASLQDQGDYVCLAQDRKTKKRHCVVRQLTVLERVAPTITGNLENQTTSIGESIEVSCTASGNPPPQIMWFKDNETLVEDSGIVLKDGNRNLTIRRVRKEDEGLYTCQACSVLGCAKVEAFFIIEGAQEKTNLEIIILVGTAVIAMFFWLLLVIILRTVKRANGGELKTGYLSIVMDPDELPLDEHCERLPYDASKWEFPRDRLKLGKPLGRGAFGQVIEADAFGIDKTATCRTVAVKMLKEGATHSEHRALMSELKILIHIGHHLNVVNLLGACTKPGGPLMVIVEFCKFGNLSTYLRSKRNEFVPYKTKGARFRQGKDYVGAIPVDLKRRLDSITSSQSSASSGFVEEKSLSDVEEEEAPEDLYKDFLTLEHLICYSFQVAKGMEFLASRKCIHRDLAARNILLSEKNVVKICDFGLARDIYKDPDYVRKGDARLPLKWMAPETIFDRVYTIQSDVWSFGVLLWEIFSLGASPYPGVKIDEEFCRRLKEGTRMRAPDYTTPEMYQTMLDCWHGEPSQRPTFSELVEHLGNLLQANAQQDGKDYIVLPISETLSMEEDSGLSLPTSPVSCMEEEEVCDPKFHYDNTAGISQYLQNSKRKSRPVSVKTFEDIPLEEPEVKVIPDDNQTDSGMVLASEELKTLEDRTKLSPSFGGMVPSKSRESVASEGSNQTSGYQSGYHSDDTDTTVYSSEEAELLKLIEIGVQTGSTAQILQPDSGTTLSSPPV

`COc1c(C)c2c(c(O)c1C/C=C(\C)CCC(=O)OCCN1CCOCC1)C(=O)OC2` [NCGC00159459-04] was tested, and the “VEGF_ADSC\ECFC Angio Hoechst NucArea IC50/EC50” value [1] was > 10 µM, the “hJAK2 LANCE IC50/EC50” value ([2]; assay number 33) was > 20 µM and the “GSK3b inh pretreated_Viability ATP HCT116 IC50/EC50” value [3, 17] was 0.0498 µM. For the same molecule, the “hFLT3 LANCE IC50/EC50” value ([4]; assay number 35) was > 20 µM, the “hKDR LANCE IC50/EC50” value ([5]; assay number 32) was > 20 µM and the “Basal_Viability ATP RKO IC50/EC50” value ([6]; assay number 29, basal) was 0.1648 µM. The “Basal_Viability ATP DLD-1 IC50/EC50” value ([7]; assay number 23, basal) was > 20 µM, the “Basal_Viability ATP SW480 IC50/EC50” value ([8]; assay number 24, basal) was 2.5974 µM and the “Basal_Viability ATP HCT116 IC50/EC50” value ([9]; assay number 25, basal) was 0.0672 µM. For the same molecule, the “Basal_Viability ATP HT-29 IC50/EC50” value ([10]; assay number 28, basal) was > 20 µM, the “Basal_Viability ATP SNU-C1 IC50/EC50” value ([11]; assay number 30, basal) was > 20 µM and the “Basal_Viability ATP Colo 320 IC50/EC50” value ([12]; assay number 27, basal) was 1 nM. The “Hela CellCycMod PI 2N IC50/EC50” value ([13]; assay number 14, 2N) was > 10 µM, the “Hela CellCycMod PI S Phase IC50/EC50” value ([13]; assay number 15, S phase) was 0.0147 µM and the “Hela CellCycMod PI 4N IC50/EC50” value ([13]; assay number 16, 4N) was > 10 µM. For the same molecule, the “Hela CellCycMod PI MI IC50/EC50” value ([13]; assay number 17, MI) was > 10 µM, the “Hela CellCycMod PI Cell Number IC50/EC50” value ([13]; assay number 18, cell number) was > 10 µM and the “VEGF_ADSC\ECFC Angio CD31 TubeArea IC50/EC50” value [14] was 1.2605 µM. For the same molecule, the “hGSK3b LANCE IC50/EC50” value ([15]; assay number 34) was > 20 µM and the “hp70S6K1 LANCE IC50/EC50” value ([16]; assay number 31) was > 20 µM.

`Nc1nc(=S)c2[nH]cnc2[nH]1` [NCGC00263442-01] was tested, and the IC50 [1] was > 10 µM, the IC50 [2] was > 20 µM and the IC50 [3] was 163 nM. For the same molecule, the IC50 [4] was > 20 µM, the IC50 [5] was > 20 µM and the IC50 [6] was 343 nM. It also gave an IC50 [7] of 108 nM, an IC50 [8] of 402 nM and an IC50 [9] of 139 nM. It also gave an IC50 [10] of 49.3 nM, an IC50 [11] of 4.4 µM and an IC50 [12] of 373 nM. For the same molecule, the IC50 ([13]; read-out: Hela CellCycMod PI 2N summarized IC50) was > 10 µM, the IC50 ([13]; read-out: Hela CellCycMod PI 4N summarized IC50) was > 10 µM and the IC50 ([13]; read-out: Hela CellCycMod PI Cell Number summarized IC50) was > 10 µM. For the same molecule, the IC50 ([13]; read-out: Hela CellCycMod PI MI summarized IC50) was > 10 µM, the IC50 ([13]; read-out: Hela CellCycMod PI S Phase summarized IC50) was > 10 µM and the IC50 [14] was 622 nM. For the same molecule, the IC50 [15] was > 20 µM and the IC50 [16] was > 20 µM.

For `S=c1nc[nH]c2nc[nH]c12` [NCGC00094717-06], the IC50 [1] was > 10 µM, the IC50 ([2]; assay number 33) was > 20 µM and the IC50 [3, 17] was 1420 nM. The IC50 ([4]; assay number 35) was > 20 µM, the IC50 ([5]; assay number 32) was > 20 µM and the IC50 ([6]; assay number 29, basal) was 659 nM. For the same molecule, the IC50 ([7]; assay number 23, basal) was 260 nM, the IC50 ([8]; assay number 24, basal) was 1040 nM and the IC50 ([9]; assay number 25, basal) was 259 nM. For the same molecule, the IC50 ([10]; assay number 28, basal) was 635 nM, the IC50 ([11]; assay number 30, basal) was > 20 µM and the IC50 ([12]; assay number 27, basal) was 1300 nM. The IC50 ([13]; assay number 14, 2N, read-out: Hela CellCycMod PI 2N summarized IC50) was > 10 µM, the IC50 ([13]; assay number 16, 4N, read-out: Hela CellCycMod PI 4N summarized IC50) was > 10 µM and the IC50 ([13]; assay number 17, MI, read-out: Hela CellCycMod PI MI summarized IC50) was > 10 µM. The IC50 ([13]; assay number 18, cell number, read-out: Hela CellCycMod PI Cell Number summarized IC50) was > 10 µM, the IC50 [14] was 915 nM and the IC50 ([15]; assay number 34) was > 20 µM. For the same molecule, the IC50 ([16]; assay number 31) was > 20 µM.

For `O=c1[nH]c(=O)n([C@H]2C[C@H](O)[C@@H](CO)O2)cc1F` [NCGC00023722-08], the “IC50/EC50, VEGF_ADSC\ECFC Angio Hoechst NucArea (assay number 3)” value [1] was > 10 µM, the “IC50/EC50, hJAK2 LANCE (assay number 33)” value [2] was > 20 µM and the “IC50/EC50, GSK3b inh pretreated_Viability ATP HCT116 (assay number 26)” value ([3]; GSK3b inh pretreated) was 1 nM. For the same molecule, the “IC50/EC50, hFLT3 LANCE (assay number 35)” value [4] was > 20 µM, the “IC50/EC50, hKDR LANCE (assay number 32)” value [5] was > 20 µM and the “IC50/EC50, Basal_Viability ATP RKO (assay number 29)” value ([6]; basal) was 1 nM. The “IC50/EC50, Basal_Viability ATP DLD-1 (assay number 23)” value ([7]; basal) was 1 nM, the “IC50/EC50, Basal_Viability ATP SW480 (assay number 24)” value ([8]; basal) was > 20 µM and the “IC50/EC50, Basal_Viability ATP HCT116 (assay number 25)” value ([9]; basal) was 1 nM. The “IC50/EC50, Basal_Viability ATP HT-29 (assay number 28)” value ([10]; basal) was > 20 µM, the “IC50/EC50, Basal_Viability ATP SNU-C1 (assay number 30)” value ([11]; basal) was > 20 µM and the “IC50/EC50, Basal_Viability ATP Colo 320 (assay number 27)” value ([12]; basal) was > 20 µM. For the same molecule, the “IC50/EC50, Hela CellCycMod PI 2N (assay number 14)” value ([13]; 2N) was > 10 µM, the “IC50/EC50, Hela CellCycMod PI 4N (assay number 16)” value ([13]; 4N) was > 10 µM and the “IC50/EC50, Hela CellCycMod PI Cell Number (assay number 18)” value ([13]; Cell Number) was > 10 µM. The “IC50/EC50, Hela CellCycMod PI MI (assay number 17)” value ([13]; MI) was > 10 µM, the “IC50/EC50, Hela CellCycMod PI S Phase (assay number 15)” value ([13]; S Phase) was 0.1688 µM and the “IC50/EC50, VEGF_ADSC\ECFC Angio CD31 TubeArea (assay number 2)” value [14] was 0.0216 µM. For the same molecule, the “IC50/EC50, hGSK3b LANCE (assay number 34)” value [15] was > 20 µM and the “IC50/EC50, hp70S6K1 LANCE (assay number 31)” value [16] was > 20 µM.
